Test results published in patent publication US5886025A, “Anti-mitotic agents which inhibit tubulin polymerization” (Baylor University, priority 1997, dated 1999).
Converted amounts (≈) assume the structure as drawn. “Also recorded” adds a separate entry of the source. Where a name gives a salt, the structure may show the parent alone. Read-outs that look alike come from different tables or passages of the source.

Columns and labels:
tubulin [1] = assay: tubulin polymerization assay; assay type: biochemical, bovine
Procedure: The ability of the various above described compounds to inhibit tubulin polymerization can be determined by in vitro assay. A suitable assay system is that described by Bai et al A method for purifying tubulin from bovine brain cells is described by Hamel and Lin.
IC50 values for tubulin polymerization were determined according to the procedure described in Bai et al. Purified tubulin is obtained from bovine brain cells as described in Hamel and Lin. Various amounts of inhibitor were preincubated for 15 minutes at 37° C. with purified tubulin. After the incubation period, the reaction was cooled and GTP was added to induce tubulin polymerization. Polymerization was then monitored in a Gilford spectrophotometer at 350 nm. The final reaction mixtures (0.25 ml) contained 1.5 mg/ml tubulin, 0.6 mg/ml microtubule-associated proteins (MAPs), 0.5 mM GTP, 0.5 mM MgCl2, 4% DMSO and 0.1M 4-morpholineethanesulfonate buffer (MES, pH 6.4).

P388 leukemia cells = assay: cytotoxic assay with P388 leukemia cells; assay type: cell-based; settings: for IC50: Mus musculus
Excerpt: The tubulin polymerization compounds can also be tested for their ability to inhibit tumor cell growth.

tubulin [2] = settings: cited from earlier work
tubulin [3] = settings: cis or Z form vs trans or E; cited from earlier work
[4] = treatment of Chagas' disease, cited from earlier work
estrogen = settings: cited from earlier work
[5] = relative to tamoxifen; cited from earlier work
[6] = P388, read-out: ED50 (effective dosage required to inhibit 50% of cell growth)

| SMILES | inhibition of tubulin polymerization (tubulin [1]) | activity against P388 leukemia cells (P388 leukemia cells; P388 leukemia cells) | IC50 (P388 leukemia cells; [6]) [µg/mL] | other results |
| --- | --- | --- | --- | --- |
| COc1ccc(-c2sc3cc(OC)ccc3c2C(=O)c2c(OC)cccc2OC)cc1 [2,6-dimethoxybenzoyl, 3-(2', 6'-dimethoxybenzoyl)-2-(4'-methoxyphenyl)-6-methoxybenzo[b]thiophene] | no observable tubulin polymerization inhibition activity; also recorded: failed to inhibit tubulin polymerization | failed to show measurable activity | – | IC50 (P388 leukemia cells; read-out: ED50 (effective dosage required to inhibit 50% of cell growth), P388 leukemia cells): > 100 µg/mL |
| COc1cc2c(cc1O)CC[C@@H]1[C@@H]2CC[C@]2(C)[C@@H](O)CC[C@@H]12 [2-methoxyestradiol] | – | – | – | inhibition of tubulin polymerization (tubulin [2]): viable inhibitor of tubulin polymerization |
| COc1ccc(-c2sc3cc(OC)ccc3c2C(=O)c2cc(OC)c(O)c(OC)c2)cc1 [3,5-dimethoxy-4-hydroxybenzoyl] | no observable tubulin polymerization inhibition activity; also recorded: failed to inhibit tubulin polymerization | failed to show measurable activity | > 100 | – |
| COc1ccc(-c2sc3cc(OC)ccc3c2C(=O)c2cc(OC)cc(OC)c2)cc1 [3,5-dimethoxybenzoyl, 3-(3',5'-dimethoxybenzoyl)-2-(4'-methoxyphenyl)-6-methoxybenzo[b]thiophene] | no observable tubulin polymerization inhibition activity; also recorded: failed to inhibit tubulin polymerization | failed to show measurable activity | > 100 | – |
| COc1ccc(/C=C\c2cc(OC)c(OC)c(OC)c2)cc1N(Cc1ccccc1)Cc1ccccc1 [5-[(Z)-2-(3',4',5'-trimethoxyphenyl)ethenyl]-2-methoxy-N,N-bis-(phenylmethyl)aniline, reference compound] | – | – | 33.9 (≈ 68.4 µM) | – |
| COc1ccc(/C=C\c2cc(OC)c(OC)c(OC)c2)cc1O [Combretastatin A-4] | – | – | – | binding affinity for tubulin, cis (Z) form compared to trans (E) counterpart (tubulin [3]): much higher binding affinity for tubulin |
| O=C(Cn1ccnc1[N+](=O)[O-])NCc1ccccc1 [benznidazole] | – | – | – | genotoxicity in children [4]: may also cause genotoxicity in children; adverse effects [4]: thrombocytopenic purpura and polyneropathy |
| CC1CS(=O)(=O)CCN1/N=C/c1ccc([N+](=O)[O-])o1 (stereo not drawn) [nifurtimox] | – | – | – | genotoxicity in children [4]: may also cause genotoxicity in children; adverse effects [4]: thrombocytopenic purpura and polyneropathy |
| CC/C(=C(\c1ccccc1)c1ccc(OCCN(C)C)cc1)c1ccccc1 [tamoxifen] | – | – | – | intrinsic estrogen agonist properties (estrogen): retain some intrinsic estrogen agonist properties |
| COc1ccc(C2=C(C(=O)c3ccc(OCCN4CCCC4)cc3)c3ccccc3CC2)cc1 [trioxifene mesylate] | – | – | – | anti-tumor effects compared with tamoxifen [5]: anti-tumor effects at the same or higher level as tamoxifen |
